# Source: US5502068A, “Cyclopropylpyrroloindole-oligopeptide anticancer agents” (Synphar Laboratories, Inc., priority 1995, dated 1996)
# “Also recorded” adds a separate entry of the source. Read-outs that look alike come from different tables or passages of the source.
# Tests used:
# [1] = in words; cited from earlier work
# herpes viruses = conditions: cited from earlier work
# [2] = tested on: KB human nasopharyngeal carcinoma cells; assay: Cytotoxicity (antiproliferative effect), crystal violet staining; format: cell-based; conditions: for IC50: Homo sapiens, KB, 72 h
# Description: KB human nasopharyngeal carcinoma cells, were maintained in RPMI 1640 medium supplemented with 10% fetal bovine serum. KB cells were cultured in plastic tissue culture flasks and kept in an incubator at 37° C. in humidified air containing 5% CO2. These cells were free of Mycoplasma as determined with Hoechst 33258 stain.
# The antiproliferative effect of compounds was determined using cell staining method by crystal violet.
# One hundred-μ1 cultures were established at 10^3 cells/well in 96-well tissue culture plates (Nunc, Roskilde, Denmark). After 24 h. 100 µl of the medium containing 2 times concentrated the compounds were added to the cell culture. After an additional 3 days culture, cells were fixed to 20 µl of 25% glutaraldehyde for 15 minutes and washed with water, dried and stained with 0.05% crystal violet in 20% methanol for 15 minutes. After washing with water and drying, crystal violet was extracted with 100 µl of 50 mM NaH2 PO4 /ethanol (1:1 v/v) and OD540 was measured by the multiscanphotometer (Corona, Tokyo, Japan). A linear relationship between cell number and the amount of dye binding was found over the range of cell densities observed all experiments.
# [3] = tested on: P388 lymphocytic leukemia cells; assay: Antitumor efficacy, i.p. P388 lymphocytic leukemia in CDF1 mice; format: in vivo, mouse; conditions: 0.1 mg/kg ip; maximum ILS; P388 ip
# Description: All compounds were dissolved in dimethyl sulfoxide (DMSO), diluted in sterile 0.9% NaCl solution to 5% final DMSO concentration. BALB/c X DBA/2F1 (CDF1) mice were purchased from Japan CLEA. P388 lymphocytic leukemia cells were inoculated intraperitoneally (10^6 cells) 1 day prior to treatment into 6 week-old male CDF1 mice, and compounds were injected intraperitoneally in a total volume of 0.1 ml/10g mouse body weight. Efficacy for these models was expressed as the Increase in life span (ILS) of treated mice in comparison to untreated tumor-bearing mice. Experiment was completed on day 30 after tumor inoculation, and survivor on that day was evaluated as cured animal. Time to death (mean±SD.n=9) for untreated animals was 11.5±1.2 day and for solvent treated animals was 11.7±2.1 day.
# [4] = Table 2, KB cells, 3 days, read-out: KB cells, toxicity TD50
# [5] = Table 3, KB cells, 3 days, read-out: KB cells, toxicity TD50
compound,measurement,setting,value
Cn1cc(NC(=O)c2cc(NC(=O)c3cc(NC=O)cn3C)cn2C)cc1C(=O)NCCC(=N)N [distamycin],cytotoxicity,[1],high cytotoxicity
same,therapeutic index,herpes viruses,about 3
CC(=O)Nc1cc(C=CC(=O)N2CC3CC34C2=CC(=O)c2[nH]cc(C)c24)n(C)c1 (stereo not shown) [YW-059],IC50,[2]; [4],0.00015 ng/mL
same,cytotoxic potency / anticancer activity in vitro,"[2]; human tumor KB cell line, in words","exceeding in the case of YW-059, for example, that of any other reported natural or synthetic agents; also recorded: cytotoxic potency exceeds that of any other agent, natural or synthetic, reported to date"
"COc1cccc2c1C(=O)c1c(O)c3c(c(O)c1C2=O)C[C@@](O)(C(=O)CO)C[C@@H]3O[C@H]1C[C@H](N)[C@H](O)[C@H](C)O1 [Adriamycin, reference compound]",IC50,"[2]; Table 1, KB cells, 3 days, read-out: KB cells, toxicity TD50",11 ng/mL
same,IC50,[2]; [4],5 ng/mL
same,IC50,[2]; [5],4.4 ng/mL
CCC(=O)Nc1cc(C(=O)N2CC3CC34C2=CC(=O)c2[nH]cc(C)c24)n(C)c1 (stereo not shown) [YW-035],IC50,"[2]; Table 4, KB cell, read-out: Cytotoxicity IC50 (KB cell)",1 ng/mL
same,In vivo ILS P388 (ip),[3],56.5%
Cc1c[nH]c2c1C13CC1CN(C(=O)c1cc(NC(=O)c4cc(NC(=O)CCN(C)C)cn4C)cn1C)C3=CC2=O (stereo not shown) [YW-61],IC50,[2]; [5],2490 ng/mL
Cc1c[nH]c2c1C13CC1CN(C(=O)c1cc(NC(=O)c4cc(NC(=O)c5cc(NC(=O)CCN(C)C)cn5C)cn4C)cn1C)C3=CC2=O (stereo not shown) [YW-62],IC50,[2]; [5],1370 ng/mL
Cc1c[nH]c2c1C13CC1CN(C(=O)c1cc(NC(=O)CCN(C)C)cn1C)C3=CC2=O (stereo not shown) [YW-60],IC50,[2]; [5],184 ng/mL
Cc1c[nH]c2c1C13CC1CN(C(=O)c1nc(NC(=O)c4nc(NC(=O)CCN(C)C)cn4C)cn1C)C3=CC2=O (stereo not shown) [YW-64],IC50,[2]; [5],2520 ng/mL
